According to patent US20250051375A1, “ANTI-HIV COMPOUNDS” (Gilead Sciences, Inc., priority 2023, published 2025):
≈ marks a conversion by molar mass, not a printed value.

Tests used:
[1] = target: bovine intestinal alkaline phosphatase (Bos taurus (Bovine), UniProt P19111); assay: BiALP: conversion by bovine intestinal alkaline phosphatase; type: in vitro ADME; conditions: 2 μM substrate, 100 ng/mL iALP, Tris pH 7.8, 37° C., 60 minutes
In short: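 LC-MS (positive mode) quantified analyte/internal-standard peak area ratios, referenced to 2 μM parent product. This followed a 60 min, 37° C reaction of 2 μM substrate in Tris buffer pH 7.8 (1 mM MgCl2, 1 mM ZnCl2) containing 100 ng/mL iALP or buffer alone, run in triplicate.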

PBS Stability Assay = type: physicochemical; conditions: buffer, pH 7.4, 2 μM, phosphate buffered saline pH 7.4; read-out: PBS T½
In short: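 Half-life derives from first-order exponential decline of % compound remaining, quantified by LC-MS analyte/internal-standard peak-area ratio. Compound (2 μM final) sat in pH 7.4 phosphate-buffered saline, with aliquots quenched into acidified acetonitrile containing labetalol from 0 to 120 min.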

Solubility in FaSSIF = conditions: 23 °C, pH 6.5, fassif, thermodynamic from solid
In short: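 Concentration measured by HPLC-UV after solid compound was dosed at 5 mg/mL into pH 6.5 fasted-state simulated intestinal fluid containing taurocholate and lecithin (4:1 molar) and vortexed.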

HIV-1 IIIB strain = assay: MT-4 HIV Wild Type Virus Infection Assay (IIIB Virus); type: cell-based; conditions: Human immunodeficiency virus 1, IIIB, MT4, 120 h, MT-4 cells acutely infected with HIV-1 IIIB, 5 day incubation, Cell-titer glo
In short: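 MT-4 cells at 2×10^6 cells/ml in RPMI/10% FBS were acutely infected with HIV-1 IIIB for 1 h at 37° C, diluted 25× and added to serially diluted compounds. After 5 days at 37° C, viability read by CellTiter-Glo luminescence; EC50 from dose-response curves.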

Sequence of bovine intestinal alkaline phosphatase (P19111 20-506): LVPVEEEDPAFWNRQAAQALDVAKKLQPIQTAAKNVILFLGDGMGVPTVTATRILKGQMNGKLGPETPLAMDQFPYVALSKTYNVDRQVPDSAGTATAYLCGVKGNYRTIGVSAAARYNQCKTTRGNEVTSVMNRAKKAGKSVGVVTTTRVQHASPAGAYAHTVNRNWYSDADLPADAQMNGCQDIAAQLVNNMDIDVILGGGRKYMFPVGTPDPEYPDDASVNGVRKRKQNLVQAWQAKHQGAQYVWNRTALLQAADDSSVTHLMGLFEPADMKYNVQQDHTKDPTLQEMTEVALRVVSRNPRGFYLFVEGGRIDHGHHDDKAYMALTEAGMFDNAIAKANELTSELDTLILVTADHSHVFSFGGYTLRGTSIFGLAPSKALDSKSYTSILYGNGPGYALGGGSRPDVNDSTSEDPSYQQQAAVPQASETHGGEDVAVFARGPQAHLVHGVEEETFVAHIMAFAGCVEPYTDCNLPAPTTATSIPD

Row | SMILES | [Compound] [1] [nM] | half-life at 2 μM (PBS Stability Assay) [h] | solubility at 2 h (Solubility in FaSSIF) [µg/mL] | EC50 (HIV-1 IIIB strain) [nM] | biALP Intermediate A or [Amprenavir] (% of total) [1] | [Intermediate A] or [Amprenavir] ([1]; parent formed) [nM]
1 | COC(=O)N[C@H](C(=O)N[C@@H](Cc1ccc(C#Cc2cnc(N3CC4CCC(C3)N4C3COC3)nc2)cc1)[C@H](CN(Cc1c(F)cc(-c2ccn(C(F)F)n2)cc1F)NC(=O)[C@@H](NC(=O)OC)C(C)(C)C(F)(F)F)OC(=O)OCOC(=O)CC(C)(C)c1c(CC(=O)N[C@@H](CCC(N)=O)C(=O)O)cc(C)cc1OP(=O)(O)O)C(C)(C)C(F)(F)F [Example 87] | 1161.5 | 5.41 | 4500 (≈ 2670 µM) | 3.6 | – | –
2 | COC(=O)N[C@H](C(=O)N[C@@H](Cc1ccc(C#Cc2cnc(N3CC4CCC(C3)N4C3COC3)nc2)cc1)[C@H](CN(Cc1c(F)cc(-c2ccn(C(F)F)n2)cc1F)NC(=O)[C@@H](NC(=O)OC)C(C)(C)C(F)(F)F)OC(=O)CC(C)(C)c1c(CC(=O)N[C@@H](CCC(N)=O)C(=O)O)cc(C)cc1OP(=O)(O)O)C(C)(C)C(F)(F)F [Example 88] | 1726.6 | 6.16 | 4640 (≈ 2880 µM) | 42.8 | 6 % of total | 109.8
3 | COC(=O)N[C@H](C(=O)N[C@@H](Cc1ccc(C#Cc2cnc(N3CC4CCC(C3)N4C3COC3)nc2)cc1)[C@H](CN(Cc1c(F)cc(-c2ccn(C(F)F)n2)cc1F)NC(=O)[C@@H](NC(=O)OC)C(C)(C)C(F)(F)F)OC(=O)CC(C)(C)c1c(CC(=O)N[C@@H](CC(N)=O)C(=O)O)cc(C)cc1OP(=O)(O)O)C(C)(C)C(F)(F)F [Example 89] | 1704.6 | 5.29 | 2390 (≈ 1500 µM) | 115 | – | –
4 | COC(=O)N[C@H](C(=O)N[C@@H](Cc1ccc(C#Cc2cnc(N3CC4CCC(C3)N4C3COC3)nc2)cc1)[C@H](CN(Cc1c(F)cc(-c2ccn(C(F)F)n2)cc1F)NC(=O)[C@@H](NC(=O)OC)C(C)(C)C(F)(F)F)OC(=O)CC(C)(C)c1c(CC(=O)Nc2ccc(S(=O)(=O)O)cc2)cc(C)cc1OP(=O)(O)O)C(C)(C)C(F)(F)F [Example 90] | 1746 | 5.46 | 4240 (≈ 2590 µM) | 101 | – | –
5 | COC(=O)N[C@H](C(=O)N[C@@H](Cc1ccc(C#Cc2cnc(N3CC4CCC(C3)N4C3COC3)nc2)cc1)[C@H](CN(Cc1c(F)cc(-c2ccn(C(F)F)n2)cc1F)NC(=O)[C@@H](NC(=O)OC)C(C)(C)C(F)(F)F)OC(=O)CC(C)(C)c1c(CC(=O)NCCCC(=O)O)cc(C)cc1OP(=O)(O)O)C(C)(C)C(F)(F)F [Example 91] | 2153.3 | 6.49 | < 1000 | 60 | – | –
6 | COC(=O)N[C@H](C(=O)N[C@@H](Cc1ccc(C#Cc2cnc(N3CC4CCC(C3)N4C3COC3)nc2)cc1)[C@H](CN(Cc1c(F)cc(-c2ccn(C(F)F)n2)cc1F)NC(=O)[C@@H](NC(=O)OC)C(C)(C)C(F)(F)F)OC(=O)CC(C)(C)c1c(CC(=O)N[C@H](CCC(=O)O)C(=O)O)cc(C)cc1OP(=O)(O)O)C(C)(C)C(F)(F)F [Example 92] | 1771.4 | 5.95 | 3660 (≈ 2270 µM) | 37.1 | – | –
7 | COC(=O)N[C@H](C(=O)N[C@@H](Cc1ccc(C#Cc2cnc(N3CC4CCC(C3)N4C3COC3)nc2)cc1)[C@H](CN(Cc1c(F)cc(-c2ccn(C(F)F)n2)cc1F)NC(=O)[C@@H](NC(=O)OC)C(C)(C)C(F)(F)F)OC(=O)CC(C)(C)c1c(CC(=O)N(C)CCCC(=O)O)cc(C)cc1OP(=O)(O)O)C(C)(C)C(F)(F)F [Example 93] | 1917.5 | 2.77 | < 1000 | 55.8 | – | –
8 | COC(=O)N[C@H](C(=O)N[C@@H](Cc1ccc(C#Cc2cnc(N3CC4CCC(C3)N4C3COC3)nc2)cc1)[C@H](CN(Cc1c(F)cc(-c2ccn(C(F)F)n2)cc1F)NC(=O)[C@@H](NC(=O)OC)C(C)(C)C(F)(F)F)OC(=O)CC(C)(C)c1c(CC(=O)N(C)CCC(=O)O)cc(C)cc1OP(=O)(O)O)C(C)(C)C(F)(F)F [Example 94] | 1912 | 3.72 | 1580 (≈ 1010 µM) | 59 | – | –
9 | COC(=O)N[C@H](C(=O)N[C@@H](Cc1ccc(C#Cc2cnc(N3CC4CCC(C3)N4C3COC3)nc2)cc1)[C@H](CN(Cc1c(F)cc(-c2ccn(C(F)F)n2)cc1F)NC(=O)[C@@H](NC(=O)OC)C(C)(C)C(F)(F)F)OC(=O)CC(C)(C)c1c(CC(=O)N(C)CC(=O)O)cc(C)cc1OP(=O)(O)O)C(C)(C)C(F)(F)F [Example 95] | 1927.5 | 4.22 | 4260 (≈ 2740 µM) | 99.1 | – | –
10 | CC[C@H](C)[C@H](NC(=O)Cc1cc(C)cc(OP(=O)(O)O)c1C(C)(C)CC(=O)O[C@@H](CN(Cc1c(F)cc(-c2ccn(C(F)F)n2)cc1F)NC(=O)[C@@H](NC(=O)OC)C(C)(C)C(F)(F)F)[C@H](Cc1ccc(C#Cc2cnc(N3CC4CCC(C3)N4C3COC3)nc2)cc1)NC(=O)[C@@H](NC(=O)OC)C(C)(C)C(F)(F)F)C(=O)O [Example 96] | 2114.6 | 4.33 | 1840 (≈ 1150 µM) | 559 | – | –
11 | COC(=O)N[C@H](C(=O)N[C@@H](Cc1ccc(C#Cc2cnc(N3CC4CCC(C3)N4C3COC3)nc2)cc1)[C@H](CN(Cc1c(F)cc(-c2ccn(C(F)F)n2)cc1F)NC(=O)[C@@H](NC(=O)OC)C(C)(C)C(F)(F)F)OC(=O)CC(C)(C)c1c(CC(=O)N(C)[C@@H](C)C(=O)O)cc(C)cc1OP(=O)(O)O)C(C)(C)C(F)(F)F [Example 97] | 1772.9 | 4.64 | 4660 (≈ 2970 µM) | 204 | – | –
12 | COC(=O)N[C@H](C(=O)N[C@@H](Cc1ccc(C#Cc2cnc(N3CC4CCC(C3)N4C3COC3)nc2)cc1)[C@H](CN(Cc1c(F)cc(-c2ccn(C(F)F)n2)cc1F)NC(=O)[C@@H](NC(=O)OC)C(C)(C)C(F)(F)F)OC(=O)CC(C)(C)c1c(CC(=O)N[C@@H](C)C(=O)O)cc(C)cc1OP(=O)(O)O)C(C)(C)C(F)(F)F [Example 98] | 1320.1 | 6.47 | 4280 (≈ 2750 µM) | 64.6 | – | –
13 | COC(=O)N[C@H](C(=O)N[C@@H](Cc1ccc(C#Cc2cnc(N3CC4CCC(C3)N4C3COC3)nc2)cc1)[C@H](CN(Cc1c(F)cc(-c2ccn(C(F)F)n2)cc1F)NC(=O)[C@@H](NC(=O)OC)C(C)(C)C(F)(F)F)OC(=O)CC(C)(C)c1c(CC(=O)N[C@@H](CC(C)C)C(=O)O)cc(C)cc1OP(=O)(O)O)C(C)(C)C(F)(F)F [Example 99] | 1928.8 | 7.45 | 1880 (≈ 1180 µM) | 373 | – | –
14 | COC(=O)N[C@H](C(=O)N[C@@H](Cc1ccc(C#Cc2cnc(N3CC4CCC(C3)N4C3COC3)nc2)cc1)[C@H](CN(Cc1c(F)cc(-c2ccn(C(F)F)n2)cc1F)NC(=O)[C@@H](NC(=O)OC)C(C)(C)C(F)(F)F)OC(=O)CC(C)(C)c1c(CC(=O)NCCOP(=O)(O)O)cc(C)cc1OP(=O)(O)O)C(C)(C)C(F)(F)F [Example 100, (5S,10S,11S,14S)-8-(4-(1-(difluoromethyl)-1H-pyrazol-3-yl)-2,6-difluorobenzyl)-11-(4-((2-(8-(oxetan-3-yl)-3,8-diazabicyclo[3.2.1]octan-3-yl)pyrimidin-5-yl)ethynyl)benzyl)-3,6,13,16-tetraoxo-5,14-bis(1,1,1-trifluoro-2-methylpropan-2-yl)-2,17-dioxa-4,7,8,12,15-pentaazaoctadecan-10-yl 3-methyl-3-(4-methyl-2-(2-oxo-2-((2-(phosphonooxy)ethyl)amino)ethyl)-6-(phosphonooxy)phenyl)butanoate] | 1103.4 | 5.22 | 4450 (≈ 2770 µM) | 42.4 | – | –
15 | COC(=O)N[C@H](C(=O)N[C@@H](Cc1ccc(C#Cc2cnc(N3CC4CCC(C3)N4C3COC3)nc2)cc1)[C@H](CN(Cc1c(F)cc(-c2ccn(C(F)F)n2)cc1F)NC(=O)[C@@H](NC(=O)OC)C(C)(C)C(F)(F)F)OC(=O)CC(C)(C)c1c(CC(=O)N[C@H]2C[C@H](C(=O)O)C2)cc(C)cc1OP(=O)(O)O)C(C)(C)C(F)(F)F [Example 101] | 1688.4 | 8.09 | 1520 (≈ 964 µM) | 60.6 | – | –
16 | COC(=O)N[C@H](C(=O)N[C@@H](Cc1ccc(C#Cc2cnc(N3CC4CCC(C3)N4C3COC3)nc2)cc1)[C@H](CN(Cc1c(F)cc(-c2ccn(C(F)F)n2)cc1F)NC(=O)[C@@H](NC(=O)OC)C(C)(C)C(F)(F)F)OC(=O)CC(C)(C)c1c(CC(=O)N[C@H]2C[C@@H](C(=O)O)C2)cc(C)cc1OP(=O)(O)O)C(C)(C)C(F)(F)F [Example 102] | 1966.3 | 7.78 | 2860 (≈ 1810 µM) | 54.1 | – | –
17 | COC(=O)N[C@H](C(=O)N[C@@H](Cc1ccc(C#Cc2cnc(N3CC4CCC(C3)N4C3COC3)nc2)cc1)[C@H](CN(Cc1c(F)cc(-c2ccn(C(F)F)n2)cc1F)NC(=O)[C@@H](NC(=O)OC)C(C)(C)C(F)(F)F)OC(=O)CC(C)(C)c1c(CC(=O)NCC(C)(C)C(=O)O)cc(C)cc1OP(=O)(O)O)C(C)(C)C(F)(F)F [Example 103] | 1589 | 5.52 | 80 (≈ 50.5 µM) | 132 | – | –
